Data: PubChem BioAssay (NCI)
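Values below derive from 48-hour exposures of cells grown in 96-well plates, with endpoints linearly interpolated between the two concentrations bracketing the appropriate inhibition level. At the GI50, growth is halved. TGI marks complete inhibition of growth.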

Key:
Assay in all cases: NCI-60 cell line screen, 48 h
[1] = system: MALME-3M melanoma
[2] = system: NCI-H23 lung
[3] = system: OVCAR-3 ovarian
[4] = system: SNB-19 CNS
[5] = system: M14 melanoma
[6] = system: NCI/ADR-RES ovarian
[7] = system: SK-MEL-28 melanoma
[8] = system: 786-0 renal
[9] = system: HCT-15 colon
[10] = system: ACHN renal
[11] = system: MDA-MB-231 breast
[12] = system: HCT-116 colon
[13] = system: IGROV1 ovarian
[14] = system: HL-60(TB) leukemia
[15] = system: UACC-62 melanoma
[16] = system: U251 CNS
[17] = system: SF-539 CNS
[18] = system: NCI-H522 lung
[19] = system: UACC-257 melanoma
[20] = system: K-562 leukemia
[21] = system: SF-295 CNS
[22] = system: SK-MEL-5 melanoma
[23] = system: SNB-75 CNS
[24] = system: EKVX NSCLC
[25] = system: SF-268 CNS
[26] = system: HCC-2998 colon
[27] = system: NCI-H460 lung
[28] = system: T-47D breast
[29] = system: HS 578T breast
[30] = system: OVCAR-5 ovarian
[31] = system: NCI-H226 lung
[32] = system: SN12C renal
[33] = system: HOP-62 NSCLC
[34] = system: LOX IMVI melanoma
[35] = system: SK-MEL-2 melanoma
[36] = system: MCF7 breast
[37] = system: A549 NSCLC
[38] = system: HOP-92 NSCLC
[39] = system: UO-31 renal
[40] = system: HT29 colon
[41] = system: COLO 205 colon
[42] = system: CAKI-1 renal
[43] = system: KM12 colon
[44] = system: MDA-MB-435
[45] = system: OVCAR-8 ovarian
[46] = system: PC-3 prostate
[47] = system: OVCAR-4 ovarian
[48] = system: SR leukemia
[49] = system: CCRF-CEM leukemia
[50] = system: RXF 393 renal
[51] = system: RPMI-8226 leukemia
[52] = system: SK-OV-3 ovarian
[53] = system: BT-549 breast
[54] = system: MOLT-4 leukemia
[55] = system: SW-620 colon
[56] = system: DU-145 prostate
[57] = system: TK-10 renal
[58] = system: A498 renal

CCN(CC)c1ccc(/C=N/NC(=O)c2ccc(S(C)(=O)=O)cc2)c(O)c1
GI50 [1]: 0.491 µM | TGI [1]: > 82.4 µM | GI50 [2]: 0.537 µM | TGI [2]: > 100 µM | GI50 [3]: 0.177 µM | TGI [3]: > 100 µM | GI50 [4]: 0.56 µM | TGI [4]: > 100 µM | GI50 [5]: 0.21 µM | TGI [5]: 2.45 µM | GI50 [6]: 0.467 µM | TGI [6]: > 44.4 µM | GI50 [7]: 0.362 µM | TGI [7]: > 100 µM | GI50 [8]: 0.246 µM | TGI [8]: > 100 µM | GI50 [9]: 0.12 µM | TGI [9]: > 100 µM | GI50 [10]: 0.179 µM | TGI [10]: > 100 µM | GI50 [11]: 0.347 µM | TGI [11]: > 100 µM | GI50 [12]: 0.186 µM | TGI [12]: > 100 µM | GI50 [13]: 0.292 µM | TGI [13]: > 100 µM | GI50 [14]: 0.288 µM | TGI [14]: 3.01 µM | GI50 [15]: 0.306 µM | TGI [15]: 15.1 µM | GI50 [16]: 0.238 µM | TGI [16]: > 41 µM | GI50 [17]: 0.287 µM | TGI [17]: 12 µM | GI50 [18]: 0.455 µM | TGI [18]: > 100 µM | GI50 [19]: 0.34 µM | TGI [19]: 5.6 µM | GI50 [20]: 0.9 µM | TGI [20]: > 100 µM | GI50 [21]: 0.259 µM | TGI [21]: > 100 µM | GI50 [22]: 0.33 µM | TGI [22]: 2.49 µM | GI50 [23]: 0.292 µM | TGI [23]: > 29.3 µM | GI50 [24]: 0.222 µM | TGI [24]: > 100 µM | GI50 [25]: 0.167 µM | TGI [25]: > 100 µM | GI50 [26]: 0.292 µM | TGI [26]: > 100 µM | GI50 [27]: 0.179 µM | TGI [27]: 16 µM | GI50 [28]: 0.444 µM | TGI [28]: > 100 µM | GI50 [29]: 6.44 µM | TGI [29]: > 100 µM | GI50 [30]: 2.86 µM | TGI [30]: > 100 µM | GI50 [31]: 0.174 µM | TGI [31]: 5.19 µM | GI50 [32]: 0.415 µM | TGI [32]: > 100 µM | GI50 [33]: 0.156 µM | TGI [33]: > 57.9 µM | GI50 [34]: 0.15 µM | TGI [34]: 2.76 µM | GI50 [35]: 0.777 µM | TGI [35]: > 100 µM | GI50 [36]: 0.3 µM | TGI [36]: > 100 µM | GI50 [37]: 0.542 µM | TGI [37]: > 100 µM | GI50 [38]: 0.439 µM | TGI [38]: 32.9 µM | GI50 [39]: 0.2 µM | TGI [39]: 3.49 µM | GI50 [40]: 0.469 µM | TGI [40]: > 100 µM | GI50 [41]: 0.297 µM | TGI [41]: > 100 µM | GI50 [42]: 0.199 µM | TGI [42]: > 100 µM | GI50 [43]: 0.418 µM | TGI [43]: > 100 µM | GI50 [44]: 0.605 µM | TGI [44]: > 100 µM | GI50 [45]: 0.32 µM | TGI [45]: > 69.5 µM | GI50 [46]: 0.409 µM | TGI [46]: > 100 µM | GI50 [47]: 0.139 µM | TGI [47]: > 80.3 µM | GI50 [48]: 0.0972 µM | TGI [48]: > 100 µM | GI50 [49]: 0.0825 µM | TGI [49]: > 100 µM | GI50 [50]: 0.452 µM | TGI [50]: > 62.1 µM | GI50 [51]: 0.399 µM | TGI [51]: > 100 µM | GI50 [52]: 0.251 µM | TGI [52]: 57.8 µM | GI50 [53]: 0.596 µM | TGI [53]: > 39.9 µM | GI50 [54]: 0.253 µM | TGI [54]: > 100 µM | GI50 [55]: 0.438 µM | TGI [55]: > 100 µM | GI50 [56]: 0.308 µM | TGI [56]: > 100 µM | GI50 [57]: 0.356 µM | TGI [57]: > 100 µM | GI50 [58]: 4.98 µM | TGI [58]: > 100 µM

Cn1ccnc1Sc1ccc(/C=N\NC(=O)c2cccc(F)c2)cc1[N+](=O)[O-]
TGI [1]: > 100 µM | TGI [2]: > 100 µM | TGI [3]: > 100 µM | TGI [4]: 77.1 µM | TGI [5]: > 100 µM | TGI [6]: > 100 µM | TGI [7]: > 100 µM | TGI [8]: > 100 µM | TGI [9]: > 100 µM | TGI [10]: > 100 µM | TGI [11]: > 100 µM | TGI [12]: > 100 µM | TGI [13]: 53 µM | TGI [14]: > 100 µM | TGI [15]: > 100 µM | TGI [16]: 43.7 µM | TGI [17]: 66.4 µM | TGI [18]: 72.1 µM | TGI [19]: > 100 µM | TGI [20]: > 100 µM | TGI [21]: > 100 µM | TGI [22]: > 100 µM | TGI [23]: 59.5 µM | TGI [24]: > 100 µM | TGI [25]: 53.9 µM | TGI [26]: > 100 µM | TGI [27]: > 100 µM | TGI [28]: > 100 µM | TGI [29]: 70.6 µM | TGI [30]: > 100 µM | TGI [31]: > 100 µM | TGI [32]: > 100 µM | TGI [33]: > 100 µM | TGI [34]: > 100 µM | TGI [35]: > 100 µM | TGI [36]: 91.5 µM | TGI [37]: > 100 µM | TGI [38]: 63.7 µM | TGI [39]: > 100 µM | TGI [40]: > 100 µM | TGI [41]: > 100 µM | TGI [42]: > 100 µM | TGI [43]: > 100 µM | TGI [44]: > 100 µM | TGI [45]: 63.5 µM | TGI [46]: 63.2 µM | TGI [47]: > 100 µM | TGI [48]: > 100 µM | TGI [49]: > 100 µM | TGI [50]: 94.3 µM | TGI [51]: > 100 µM | TGI [52]: 89.8 µM | TGI [53]: > 100 µM | TGI [54]: > 100 µM | TGI [55]: > 100 µM | TGI [56]: > 100 µM | TGI [57]: > 100 µM | TGI [58]: 65.7 µM

CCCc1cn2c(/C=N/N=C(N)N)c(-c3c(OC)ccc(OC)c3[N+](=O)[O-])nc2s1
TGI [1]: 30 µM | TGI [2]: 26.1 µM | TGI [3]: 18.2 µM | TGI [4]: 49.9 µM | TGI [5]: 21.3 µM | TGI [6]: 64.6 µM | TGI [7]: 19.4 µM | TGI [8]: 28.1 µM | TGI [9]: 37 µM | TGI [10]: 35.6 µM | TGI [11]: 16.2 µM | TGI [12]: 22.2 µM | TGI [13]: 34.8 µM | TGI [14]: 27.6 µM | TGI [15]: 25.4 µM | TGI [16]: 18.7 µM | TGI [17]: 36.9 µM | TGI [18]: 34.2 µM | TGI [19]: 28.4 µM | TGI [20]: 11.5 µM | TGI [21]: 35.7 µM | TGI [22]: 32.3 µM | TGI [23]: > 59.1 µM | TGI [24]: 44.8 µM | TGI [25]: 47.2 µM | TGI [26]: 4.59 µM | TGI [27]: 41.6 µM | TGI [28]: 24.3 µM | TGI [29]: 41.9 µM | TGI [30]: 34.5 µM | TGI [31]: 38.3 µM | TGI [32]: 31.7 µM | TGI [33]: 31.1 µM | TGI [34]: 9.13 µM | TGI [35]: 46.5 µM | TGI [36]: 20.8 µM | TGI [37]: 51.3 µM | TGI [38]: 47 µM | TGI [39]: 45 µM | TGI [40]: > 38.5 µM | TGI [41]: 6.42 µM | TGI [42]: 30.6 µM | TGI [43]: 11.6 µM | TGI [44]: 19.9 µM | TGI [45]: 47.3 µM | TGI [46]: 26.5 µM | TGI [47]: 66.2 µM | TGI [48]: 4.34 µM | TGI [49]: 8.43 µM | TGI [50]: 41.2 µM | TGI [51]: 8.7 µM | TGI [52]: 43.3 µM | TGI [53]: 35.6 µM | TGI [54]: 4.19 µM | TGI [55]: 32.9 µM | TGI [56]: 35.6 µM | TGI [57]: 41 µM | TGI [58]: 44.6 µM
